IC50, Time and Activity data for one compound are collected here from ChEMBL document CHEMBL2069196, “Synthesis and evaluation of novel 4-[(3H,3aH,6aH)-3-phenyl)-4,6-dioxo-2-phenyldihydro-2H-pyrrolo[3,4-d]isoxazol-5(3H,6H,6aH)-yl]benzoic acid derivatives as potent acetylcholinesterase inhibitors and anti-amnestic agents” (Bioorg Med Chem, 2012).

One experiment has as its target T1, Acetylcholinesterase (Rattus norvegicus, UniProt P37136).
T1 sequence (P37136 whole entry): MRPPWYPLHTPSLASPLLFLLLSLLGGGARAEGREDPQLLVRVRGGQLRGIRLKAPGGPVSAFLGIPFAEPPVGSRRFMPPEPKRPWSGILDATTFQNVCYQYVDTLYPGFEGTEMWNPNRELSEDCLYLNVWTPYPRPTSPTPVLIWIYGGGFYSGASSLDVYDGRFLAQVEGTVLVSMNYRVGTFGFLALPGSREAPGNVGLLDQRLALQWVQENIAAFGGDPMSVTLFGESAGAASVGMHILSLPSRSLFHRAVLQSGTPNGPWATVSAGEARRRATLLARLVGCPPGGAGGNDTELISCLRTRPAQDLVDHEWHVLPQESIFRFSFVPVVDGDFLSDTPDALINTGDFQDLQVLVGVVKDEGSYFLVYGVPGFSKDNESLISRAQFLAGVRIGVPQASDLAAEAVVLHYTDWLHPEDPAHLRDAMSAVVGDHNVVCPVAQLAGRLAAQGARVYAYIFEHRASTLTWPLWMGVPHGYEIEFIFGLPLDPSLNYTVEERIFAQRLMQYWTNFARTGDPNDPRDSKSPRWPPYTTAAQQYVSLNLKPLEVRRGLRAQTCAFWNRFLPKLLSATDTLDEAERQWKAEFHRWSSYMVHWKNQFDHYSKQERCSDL
The experiment is described as follows: Inhibition of AChE activity in rat brain homogenate using acetylthiocholine as substrate by Ellman's method. It counts as tissue-based. For orientation: In Ellman's method for cholinesterases, released thiocholine reacts with DTNB.

Experiment [1] relates to Mus musculus. The experiment is described as follows: Antiamnesic activity in mouse assessed as inhibition of scopolamine-induced escape latency time at 5 mg/kg, ip measured on day 1 by Morris water maze test (reference value: 89.7 +/- 3.8 secs). It counts as functional. Particulars: route intraperitoneal.
Experiment [2] has as its system Mus musculus. The experiment is described as follows: Antiamnesic activity in mouse assessed as inhibition of scopolamine-induced escape latency time at 5 mg/kg, ip measured on day 4 by Morris water maze test (reference value: 78.7 +/- 5.7 secs). It counts as functional. Particulars: route intraperitoneal.
For experiment [3], the system named is Mus musculus. The experiment is described as follows: Antiamnesic activity in mouse assessed as inhibition of scopolamine-induced escape latency time at 2 mg/kg, ip measured on day 1 by Morris water maze test (reference value: 89.7 +/- 3.8 secs). It counts as functional. Particulars: route intraperitoneal.
Experiment [4] concerns Mus musculus. The experiment is described as follows: Antiamnesic activity in mouse assessed as inhibition of scopolamine-induced escape latency time at 2 mg/kg, ip measured on day 4 by Morris water maze test (reference value: 78.7 +/- 5.7 secs). It counts as functional. As to conditions: route intraperitoneal.
Experiment [5] deals with Mus musculus. The experiment is described as follows: Antiamnesic activity in scopolamine-induced amnesia mouse model assessed as increase in time spent in target quadrant at 5 mg/kg, ip measured on day 5 by Morris water maze test. It counts as functional, organism-based. Also on record: dose 5 mg/kg.
For experiment [6], the system named is Mus musculus. The experiment is described as follows: Antiamnesic activity in mouse assessed as inhibition of scopolamine-induced escape latency time at 10 mg/kg, ip measured on day 1 by Morris water maze test (reference value: 89.7 +/- 3.8 secs). It counts as functional. Particulars: route intraperitoneal.
Experiment [7] has as its system Mus musculus. The experiment is described as follows: Antiamnesic activity in mouse assessed as inhibition of scopolamine-induced escape latency time at 10 mg/kg, ip measured on day 4 by Morris water maze test (reference value: 78.7 +/- 5.7 secs). It counts as functional. As to conditions: route intraperitoneal.
Experiment [8] concerns Mus musculus. The experiment is described as follows: Antiamnesic activity in scopolamine-induced amnesia mouse model assessed as increase in time spent in target quadrant at 10 mg/kg, ip measured on day 5 by Morris water maze test. Also on record: dose 10 mg/kg. In kind it is functional, organism-based.
Another experiment has as its target Butyrylcholinesterase (Rattus norvegicus, UniProt Q9JKC1). The experiment is described as follows: Inhibition of BuChE activity in rat plasma using […] as substrate by Ellman's method. It counts as cell-free.

Calls of active or inactive are those of the source. The calls are words filed in the database; no cut-off is given here.

Sequence of Butyrylcholinesterase (Q9JKC1 whole entry): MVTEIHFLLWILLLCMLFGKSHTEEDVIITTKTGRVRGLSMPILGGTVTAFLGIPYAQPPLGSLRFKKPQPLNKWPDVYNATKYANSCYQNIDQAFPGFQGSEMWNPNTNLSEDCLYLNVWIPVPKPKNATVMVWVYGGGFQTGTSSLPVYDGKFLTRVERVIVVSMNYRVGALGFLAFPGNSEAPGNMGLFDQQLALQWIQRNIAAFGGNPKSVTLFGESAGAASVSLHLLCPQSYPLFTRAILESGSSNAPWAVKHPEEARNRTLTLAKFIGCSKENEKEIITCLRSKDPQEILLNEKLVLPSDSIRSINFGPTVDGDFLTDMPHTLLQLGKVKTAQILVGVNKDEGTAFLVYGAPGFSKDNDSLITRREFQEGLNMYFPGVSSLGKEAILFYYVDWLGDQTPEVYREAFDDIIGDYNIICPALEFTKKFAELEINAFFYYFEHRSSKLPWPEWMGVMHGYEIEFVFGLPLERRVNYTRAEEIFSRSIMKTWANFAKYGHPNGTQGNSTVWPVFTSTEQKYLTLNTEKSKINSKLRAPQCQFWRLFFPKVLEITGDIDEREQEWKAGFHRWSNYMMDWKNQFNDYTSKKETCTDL

For the compound `COc1ccc([C@H]2[C@H]3C(=O)N(c4ccc(C(=O)O)cc4)C(=O)[C@H]3ON2c2ccc(C)cc2)cc1` (relative stereo), the results for the IC50 at Acetylcholinesterase and against Butyrylcholinesterase were 0.0175 µM and 15.3 µM, respectively. The Time in the experiment on Mus musculus [1] amounted to 85.2 s; with Mus musculus [2], 69.5 s; in the experiment on Mus musculus [3] it was 83.7 s; in the experiment on Mus musculus [4], 74.8 s; with Mus musculus [6], 81.2 s; in the experiment on Mus musculus [7], 49.1 s. The outcome in the experiment on Mus musculus [5] and with Mus musculus [8] was Active.
